Laboratory results taken from US8524688B2, “Use of sulfated glycosaminoglycans for establishing effective labor in women” (Dilafor AB, priority 2002, dated 2013).

Columns and labels:
[1] = test system: human uterine strips (myometrial strip); assay: Contractile assay on uterine strips in organ bath; details: 1 U oxytocin only
Method: In the following test heparan sulfate HS2 and HS6 obtained from the heparin side fraction TB 001-91 SVCM 950130 (Kabi-Pharmacia, Sweden) were tested. HS6 differs from HS2 by being more highly sulfated and having more L-iduronic acid residues (see Table 1 above).
Uterine samples were obtained from women undergoing elective caesarian section at 38-39 weeks of gestation. The samples measured 20×10×10 mm and were taken from the upper part of the isthmic incision. The biopsy was immediately placed in ice-cold Krebs-Ringer buffer. The biopsies were cut into longitudinal strips, length 10-15 mm and breadth about 5 mm. The strip was mounted vertically in an organ bath of 37° C. containing 2 ml Krebs-Ringer solution. The solution was bubbled with a mixture of 95% O2 and 5% CO2 in order to maintain a pH in the bath of 7.35-7.45. Experiments were carried out after the strips had equilibrated to a stable contractile state, usually within 1-2 h after mounting. The contractions were recorded isometrically with a Grass model 7 polygraph (Grass Instr. Co., Quincy, Mass., USA). All samples were exposed to 100 mM KCl during the experiment in order to get a standardized maximum response. […]
This procedure was repeated using 6 μg of heparan sulfate. […] The contractions were recorded and evaluated by integrating the surface under the curve. […]

cervical fibroblasts = assay: Effect on Ca2+ levels in cervical fibroblasts (Fluo-4 fluorescence); format: cell-based, human; details: cultures from non-pregnant and term pregnant patients
Method: Fibroblast cultures were established from non-pregnant, and term pregnant patients and from women delivered vaginally (after partus patients). The cells were cultured in monolayer cultures with minimum essential medium with 10% donor calf serum. For experiments these cells were plated on cover glasses with at semi-confluence and loaded with Fluo-4 in phosphate buffered saline containing 10 mM HEPES for 30 min. Initially phosphate buffered saline containing 10 mM HEPES (HEPES-buffer) was pumped into the observation chamber for 30 s, then KCl in the same buffer was pumped for 60 s followed by HEPES-buffer for 30 s. Then 10 ng of PDGF/ml in HEPES-buffer was added. The fluorescence was monitored continuously for 3 min. In other experiments PDGF was replaced with 100 μg of HS6. […] This effect is postulated to be of importance at partus for final preparation of cervix for delivery.

Question: How did the “Relative contractility of myometrial strip, oxytocin control” value [1] turn out when `CC[C@H](C)[C@@H]1NC(=O)[C@H](Cc2ccc(O)cc2)NC(=O)[C@@H](N)CSSC[C@@H](C(=O)N2CCC[C@H]2C(=O)N[C@@H](CC(C)C)C(=O)NCC(N)=O)NC(=O)[C@H](CC(N)=O)NC(=O)[C@H](CCC(N)=O)NC1=O` [Oxytocin, oxytocin] was run?
Answer: 226 % of unstimulated control

Question: With PDGF as the molecule, how does the “Change of fluorescence (intracellular Ca2+)” value (cervical fibroblasts) read?
Answer: No change of fluorescence

Question: How did the “Change of fluorescence (intracellular Ca2+)” value (cervical fibroblasts) turn out when `[Cl-].[K+]` [KCl] was run?
Answer: No change of fluorescence
